Values of other authors as cited in US20140274796A1, “Methods, Systems, and Compositions for In Vitro Concentric Cell Culture Analog Systems” (University of Central Florida Research Foundation, Inc., priority 2013, published 2014).

Tests used:
[1] = in vivo
[2] = literature statement [Scollon 2009]
[3] = test system: sodium-channels of squid axon-membranes; settings: literature statement [Lund 1982]

SMILES	toxicity relative to trans isomers [1]	metabolic rate relative to trans isoform [2]	activity of stereospecific isomer [3]
CC1(C)C(C=C(Cl)Cl)C1C(=O)OCc1cccc(Oc2ccccc2)c1 (single isomer, unassigned) [cis isomers, permethrin]	about ten times more toxic than the trans isomers	much slower	–
CC1(C)C(C=C(Cl)Cl)C1C(=O)OCc1cccc(Oc2ccccc2)c1 (stereo not drawn) [1R-cis-, permethrin]	–	–	active
CC1(C)C(C=C(Cl)Cl)C1C(=O)OCc1cccc(Oc2ccccc2)c1 (stereo not drawn) [1R-trans-, permethrin]	–	–	active
CC1(C)C(C=C(Cl)Cl)C1C(=O)OCc1cccc(Oc2ccccc2)c1 (stereo not drawn) [1S-cis-, permethrin]	–	–	not
CC1(C)C(C=C(Cl)Cl)C1C(=O)OCc1cccc(Oc2ccccc2)c1 (stereo not drawn) [1S-trans-, permethrin]	–	–	not
